Tested on: NCI-H295R
Test: IC50 (antiproliferative, ATP content)
Conditions: 48 h
Method in brief: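 Serum-free ITS-supplemented DMEM was used to seed 1500 adrenocortical carcinoma cells per well in 1536-well plates, which were cultured overnight. Eight final concentrations of each library compound, from 0.6 nM to 46 µM, were added by pin transfer, followed by 48 h at 37 °C in 5% CO2 and a CellTiter-Glo ATP read after 20 min at room temperature. Luminescence was set against vehicle and positive-control wells, and the IC50 was obtained by logistic curve fitting. Any compound with no concentration response was entered as above the top dose.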

CC1(C)NC(=O)N(c2ccc([N+](=O)[O-])c(C(F)(F)F)c2)C1=O
IC50: > 46 µM

CCC(=O)O[C@@H]1CC(=O)O[C@H](C)CC=CC=C[C@H](O)[C@H](C)C[C@H](CC=O)[C@H](O[C@@H]2O[C@H](C)[C@@H](O[C@H]3C[C@@](C)(O)[C@@H](OC(=O)CC)[C@H](C)O3)[C@H](N(C)C)[C@H]2O)[C@H]1OC
IC50: > 46 µM

O=C(N[C@H]([C@H]1O[C@@H]([C@@H]4O)OC(C(O)=O)[C@H]([C@@H]4O)O[C@@H]([C@@H]3NC(C)=O)O[C@@H]([C@H](C3O[C@H]([C@@H]2O)O[C@H]([C@](O)=O)C([C@@H]2O)O)O)CO)C(O[C@@H]([C@H]1O)CO)O)C (some centres not stated)
IC50: > 46 µM

COc1c(O[C@@H]2O[C@H](CO)[C@@H](O)[C@H](O)[C@H]2O)cc2c(c1OC)-c1ccc(SC)c(=O)cc1[C@@H](NC(C)=O)CC2
IC50: > 46 µM

CCNC(C)Cc1cccc(C(F)(F)F)c1 (configuration not stated)
IC50: > 46 µM

COP(=S)(OC)Oc1ccc(S(=O)(=O)N(C)C)cc1
IC50: > 46 µM

CCCCCCCCCCCCCCCC(=O)OCC(COC(=O)CCCCCCCCCCCCCCC)OC(=O)CCCCCCCCCCCCCCC
IC50: > 46 µM

CN1CCCN=C1COC(=O)C(O)(c1ccccc1)C1CCCCC1.Cl (configuration not stated)
IC50: > 46 µM

C=CCc1cc(OC)c(O)c(C(=O)NCCO)c1
IC50: > 46 µM

CN1CCN(CCCN2c3ccccc3Sc3ccc(C(F)(F)F)cc32)CC1.Cl.Cl
IC50: > 46 µM

Cc1cc(C)c(C=C2C(=O)Nc3ccccc32)[nH]1
IC50: > 46 µM

COc1cc(C(=O)NCCCCCC(=O)O)cc(OC)c1OC
IC50: > 46 µM

CCOc1ccccc1C(N)=O
IC50: > 46 µM

CN(C)CCOC(c1ccc(Cl)cc1)c1ccccn1.O=C(O)/C=C\C(=O)O (configuration not stated)
IC50: > 46 µM

CCOC(=O)[C@@](C)(N)Cc1ccc(O)c(O)c1.Cl
IC50: > 46 µM

Cc1cc(O)ccc1Cl
IC50: > 46 µM

Cl.O=C1OC(CN2CCOCC2)CN1N=Cc1ccc([N+](=O)[O-])o1 (configuration not stated)
IC50: > 46 µM

CC1=CC[C@@H](CC1)[C@@](O)(C)CC\C=C(/C)C
IC50: > 46 µM

CCOC(=O)c1ccc(O)cc1
IC50: > 46 µM

O=[C@](O)[C@@H]2CC1=C(CN2C([C@H](C)N[C@@H](CCC3=CC=CC=C3)[C@](OCC)=O)=O)C=C(OC)C(OC)=C1.Cl
IC50: > 46 µM

CC[N+](CC)(CC)CC.[Cl-]
IC50: > 46 µM

Oc1ccc(Cl)cc1Cc1ccccc1
IC50: > 46 µM

Cc1cc2c(s1)Nc1ccccc1N=C2N1CCN(C)CC1
IC50: > 46 µM

OCCOc1ccccc1
IC50: > 46 µM

Cc1ccnc2c1NC(=O)c1cccnc1N2C1CC1
IC50: > 46 µM

C=CCC1(C(C)CCC)C(=O)N=C([S-])NC1=O.[Na+] (configuration not stated)
IC50: > 46 µM

O=C(c1cc2ccccc2o1)N1CCN(Cc2ccccc2)CC1
IC50: > 46 µM

Clc1cccc(N2CCNCC2)c1
IC50: > 46 µM

CC[C@@H]1C(=O)OC[C@@H]1Cc1cncn1C
IC50: > 46 µM

OCC(O)CN1CCN(c2ccccc2)CC1 (configuration not stated)
IC50: > 46 µM

CC1CCCCN1CCCOC(=O)c1ccccc1.Cl (configuration not stated)
IC50: > 46 µM

CC(C)(C)C(=O)NCCCC(=O)O
IC50: > 46 µM

C(=Cc1ccncc1)c1ccccc1
IC50: > 46 µM

O=C(O)c1cc(=O)c2ccccc2o1
IC50: > 46 µM

O=C2N1[C@]([C@@]([H])2NC(C(C(OC)=CC=C3)=C3OC)=O)([H])SC(C)(C)[C@@H]1[C@@]([O-])=O.[Na+].O
IC50: > 46 µM

CNc1cc(OC)c(C(=O)N[C@H]2CCN(Cc3ccccc3)[C@H]2C)cc1Cl
IC50: > 46 µM

COc1cc(C(=O)N2CCOCC2)cc(OC)c1OC
IC50: > 46 µM

CC(C)NC(C)Cc1ccc(I)cc1.Cl (configuration not stated)
IC50: > 46 µM

CN[C@@H]1[C@@H](O)[C@@H](O[C@@H]2[C@H](O)[C@H](O[C@H]3OC(CN)=CC[C@H]3N)[C@@H](N)C[C@H]2N)OC[C@]1(C)O
IC50: > 46 µM

O=[C@](O)[C@H](CC1)NC1=O
IC50: > 46 µM

Cl.Nc1cc(Cl)c(NC2=NCCN2)c(Cl)c1
IC50: > 46 µM

CS(=O)(=O)Nc1ccc([N+](=O)[O-])cc1Oc1ccccc1
IC50: > 46 µM

Oc1cc(Cl)ccc1Oc1ccc(Cl)cc1Cl
IC50: > 46 µM

CCOc1ccc2c(c1)C(C)=CC(C)(C)N2
IC50: > 46 µM

CCCN1CCC[C@H](c2cccc(O)c2)C1.Cl
IC50: > 46 µM

O[C@H]1[C@@H]([C@]2=CC(O)=C(O)C=C2)OC3=C(C(O)=CC(O)=C3)C1
IC50: > 46 µM

O=[C@@]([C@@H]2CC[C@@H](CN)CC2)OC1=CC=C(CCC(O)=O)C=C1.Cl
IC50: > 46 µM

CCCCCCCCCCCCCC(=O)OC(C)C
IC50: > 46 µM

CCCC(=O)O[C@]1(C(=O)COC(C)=O)CC[C@H]2[C@@H]3C[C@H](F)C4=CC(=O)C=C[C@]4(C)[C@@]3(F)[C@@H](O)C[C@@]21C
IC50: > 46 µM

CN1[C@@H]2CC[C@H]1C[C@@H](OC(=O)c1cc(Cl)cc(Cl)c1)C2
IC50: > 46 µM

CC1(C)S[C@@H]2[C@H](NC(=O)[C@@H](NC(=O)N3CCNC3=O)c3ccccc3)C(=O)N2[C@H]1C(=O)[O-].[Na+]
IC50: > 46 µM

NCC[C@H](O)C(=O)N[C@@H]1C[C@H](N)[C@@H](O[C@H]2O[C@H](CN)[C@@H](O)[C@H](O)[C@H]2O)[C@H](O)[C@H]1O[C@H]1O[C@H](CO)[C@@H](O)[C@H](N)[C@H]1O
IC50: > 46 µM

CCN(CC)C(=O)c1cccnc1
IC50: > 46 µM

Br.COc1c2c(cc3c1OCO3)CCN(C)C2
IC50: > 46 µM

O=P(O)(O)CP(=O)(O)O
IC50: > 46 µM

CC12CCC(C[N+](C)(CCC[N+](C)(C)C)C1)C2(C)C.COS(=O)(=O)[O-].COS(=O)(=O)[O-] (configuration not stated)
IC50: > 46 µM

CC(C)(CO)[C@@H](O)C(=O)NCCCC(=O)[O-].CC(C)(CO)[C@@H](O)C(=O)NCCCC(=O)[O-].[Ca+2]
IC50: > 46 µM

CC(=O)Nc1ncc([N+](=O)[O-])s1
IC50: > 46 µM

O=C2N1[C@]([C@@]([H])2NC(C3=C(C)ON=C3C(C(Cl)=CC=C4)=C4F)=O)([H])SC(C)(C)[C@@H]1[C@@]([O-])=O.[Na+]
IC50: > 46 µM

NC1CCCCC1.NC1CCCCC1.O=P(O)(O)OC[C@H](O)CO
IC50: > 46 µM

C[C@]12C=CC(=O)C=C1CC[C@H]1[C@@H]3C[C@@H](O)[C@](O)(C(=O)CO)[C@@]3(C)C[C@H](O)[C@@]12F
IC50: > 46 µM

CCCC(=O)Nc1c(I)cc(I)c(CC(CC)C(=O)[O-])c1I.[Na+] (configuration not stated)
IC50: > 46 µM

NC(=O)CN1CCCC1=O
IC50: > 46 µM

Cc1scc2c1N(C(=O)CN1CCN(C)CC1)c1ccccc1NC2=O
IC50: > 46 µM

Cc1ccc(S(=O)(=O)NC(=O)NN2CC3CCCC3C2)cc1 (configuration not stated)
IC50: > 46 µM

CN1[C@@H]2CC[C@H]1C[C@@H](OC(=O)C(CO)c1ccccc1)C2 (some centres not stated)
IC50: > 46 µM

CO/N=C(\C(=O)N[C@@H]1C(=O)N2C(C(=O)[O-])=C(CSc3nc(=O)c([O-])nn3C)CS[C@H]12)c1csc(N)n1.O.O.O.[Na+].[Na+]
IC50: > 46 µM

NC(=O)c1cn(Cc2c(F)cccc2F)nn1
IC50: > 46 µM

O=C1O[C@@H]3CCN2C\C=C(\COC(=O)[C@](C)(O)[C@](C)(O)[C@H]1C)[C@@H]23
IC50: > 46 µM

CCC(COC(=O)c1cc(OC)c(OC)c(OC)c1)(c1ccccc1)N(C)C.O=C(O)/C=C\C(=O)O (configuration not stated)
IC50: > 46 µM

O=[C@]([C@@H]3N([C@@H]2SC(C)3C)C([C@H]2NC([C@@H](C1=CC=C(C=C1)O)N)=O)=O)O
IC50: > 46 µM

CCOC(=O)[C@H](CCc1ccccc1)N[C@@H](C)C(=O)N1CCC[C@H]1C(=O)O
IC50: > 46 µM
